{"source": "paper PMC5133935", "about": "“Hydrostatin-TL1, an Anti-Inflammatory Active Peptide from the Venom Gland of Hydrophis cyanocinctus in the South China Sea” (International Journal of Molecular Sciences, 2016)", "key": {"mammalian cells": {"system": "mammalian cells", "assay": "Cytotoxicity toward mammalian cells (general statement)", "assay_type": "cell-based", "details": "conclusion statement"}, "L929 cells [1]": {"system": "L929 cells", "assay": "MTT assay, protection from TNF-α-mediated cytotoxicity", "assay_type": "cell-based, mouse", "details": "H-TL1 1 to 1000 nM; hrTNF-α 20 ng/mL + 0.2 μg/mL actinomycin D; 18–20 h, 37 °C; MTT 490 nm; n = 5", "procedure": "(§1) We used the L929 cell line, which is commonly chosen by researchers, to evaluate the effects of H-TL1 on TNF-α-mediated cytotoxicity. The cells were treated with TNF-α and 0.2 μg/mL actinomycin D in the presence of graded concentrations of H-TL1. Cell viability was evaluated using MTT assay. […] Furthermore, H-TL1 was not cytotoxic against L929 cells at 100 μM (data not shown), which far exceeds the concentration of H-TL1 used in the in vitro assays.\nThe H. cyanocinctus specimens were captured during September 2005 in the South China Sea near Guangdong Province, People’s Republic of China. After collection, the snakes were killed, and the venom glands were isolated and immediately frozen in liquid nitrogen until use. HEK-293 human embryonic kidney and L929 mouse fibroblast cell lines were obtained from ATCC and cultured in Dulbecco’s modified Eagle’s medium (DMEM, Sigma-Aldrich, St. Louis, MO, USA) containing 10% (v/v) heat-inactivated fetal bovine serum (FBS, Gibco, BRL, Grand Island, NY, USA) at 37 °C in an atmosphere of 5% CO2. […]\nFor MTT cell viability assay, L929 cells were seeded onto a 96-well plate and cultured for 12 h. […] Following incubation at 37 °C for 18–20 h, MTT solution was added, followed by incubation at 37 °C for 4 h, and then the absorbance was determined at 490 nm. […]"}, "[2]": {"system": "HEK-293 cells, TNF-α-induced expression of pro-inflammatory factors", "assay": "Real-time PCR, TNF-α-induced gene expression in HEK-293 cells", "assay_type": "cell-based, human", "details": "TNF-α 20 ng/mL, 2^−ΔΔCt, GAPDH, n = 3", "excerpt": "NF-κB activation through TNF-α/TNFR interactions upregulates the expression of chemokines and adhesion factors such as IL-8, TNF-α, ICAM-1, and VCAM-1 [25, 26]. To determine whether H-TL1 inhibits TNF-α-mediated pro-inflammatory activity, we further assessed the inhibitory activity of H-TL1 on TNF-α-induced expression of these genes in HEK-293 cells.\n(§2) The H. cyanocinctus specimens were captured during September 2005 in the South China Sea near Guangdong Province, People’s Republic of China. After collection, the snakes were killed, and the venom glands were isolated and immediately frozen in liquid nitrogen until use. HEK-293 human embryonic kidney and L929 mouse fibroblast cell lines were obtained from ATCC and cultured in Dulbecco’s modified Eagle’s medium (DMEM, Sigma-Aldrich, St. Louis, MO, USA) containing 10% (v/v) heat-inactivated fetal bovine serum (FBS, Gibco, BRL, Grand Island, NY, USA) at 37 °C in an atmosphere of 5% CO2. The BLT5403 E. coli strain (used as the phage host strain) was from Novagen (Merck) and was cultured at 37 °C for propagation. The specific pathogen-free (SPF) male BALB/c and C57BL/6 mice (both 6–8 weeks old), weighing 20 ± 2 g were purchased from Shanghai SLAC Laboratory Animal Co., Ltd. (Shanghai, China). The mice were housed in animal facilities with 50% humidity under a 12-h light-dark cycle, fed a standard pellet diet, and provided with tap water ad libitum. The animal experimental protocols in this research, including venom gland isolation and the mouse study, were approved by the Animal Care and Use Committee of the Second Military Medical University.\nTotal RNA was extracted from colon tissue specimens or cells using Trizol reagent (Takara) according to the manufacturer’s instructions and was then reverse transcribed using random primers. Real-time PCR was performed on a StepOne Real-Time PCR System (Applied Biosystems, Foster City, CA, USA) to analyze the mRNA expression levels of IL-8, TNF-α, IL-1β, IL-6, VCAM-1, and ICAM-1. The relative fold changes of target gene expression were comparatively quantified by the 2^−ΔΔCt method. GAPDH was chosen as the internal control gene, and samples without treatment were designated as the comparing reference. Primers used in this study were based on published sequences."}, "[3]": {"system": "LPS-induced acute shock in C57BL/6 mice", "assay": "LPS-induced acute shock, survival", "assay_type": "in vivo, mouse", "details": "for survival rate: within 96 h, LPS + vehicle all died within 30 h, n = 8", "excerpt": "as §2\n(§3) The LPS-induced acute shock model was established in male C57BL/6 mice (6–8 weeks old) that were randomly allocated to five groups. LPS was administered (15 mg/kg body weight) to induce acute shock. The LPS- or normal saline-treated mice were injected with 100 μL of normal saline with or without LPS intraperitoneally, while the H-TL1 and LPS-treated mice were each administered H-TL1 at three doses of 20, 40, and 80 μg/kg 1, 3, and 5 h after the LPS injection (Figure 5A). The mice were observed every 4 h to evaluate mortality."}, "[4]": {"system": "DSS-induced colitis in BALB/c mice", "assay": "DSS-induced acute colitis (symptoms, DAI, body weight, spleen, colon length)", "assay_type": "in vivo, mouse", "excerpt": "as §2\nTo induce colitis, 6–8 week old male BALB/c mice were administered 2.5% DSS solution in their drinking water for 7–8 consecutive days, ad libitum. Importantly, 30–40 kDa DSS was used to establish the animal model in this study because it is known to induce more severe colitis than 5 and 500 kDa DSS [37]. The mice were concomitantly administered H-TL1 (0.5 or 1 mg/kg) once daily for 7–8 consecutive days by intraperitoneal injection. Establishment of the DSS-induced colitis was evidenced by an increase in DAI, with associated weight loss, loose stool consistency, and presence of blood in the feces. DAI was monitored during the entire experiment and was assessed according to the method described in Table 1."}, "[5]": {"system": "TNF-α expression in lung tissue of LPS-treated mice", "assay": "Immunohistochemistry, TNF-α in lung tissue", "assay_type": "in vivo, mouse", "details": "IHC 400×, n = 8, *** p < 0.001 vs. LPS group", "procedure": "as §3\nAn additional set of paraffin sections was used for immunohistochemical analysis of TNF-α expression. Sections (5-μm thick) were mounted on slides, cleaned, hydrated, blocked with endogenous peroxidase (Dako, S2001), washed with PBS, and then treated with citrate buffer ([…], pH 6.0) for target antigen retrieval. The sections were treated with a buffered blocking solution (3% BSA in PBS for 15 min), incubated for 1 h at room temperature with a primary polyclonal antibody specific to mouse TNF-α, washed with PBS, and incubated with a secondary HRP-labeled antibody (Abcam) (1:500 in PBS, v/v) at room temperature for 1 h. Then, the sections were washed again with Tris-HCl 0.05 M, pH 7.6, and subsequently incubated with 3,3′-diaminobenzidine (DAB) solution in the dark at room temperature for 10 min. […]"}, "L929 cells [6]": {"system": "L929 cells", "assay_type": "cell-based, mouse", "details": "H-TL1 100 μM; data not shown", "procedure": "as §1\nas §2, with “The mice were housed in animal facilities with 50% humidity under a 12-h light-dark cycle, fed a standard pellet diet, and provided with tap water ad libitum. The animal experimental protocols in this research, including venom gland isolation and the mouse study, were approved by the Animal Care and Use Committee of the Second Military Medical University.” left out"}}, "note": "“Also recorded” adds a separate entry of the source. No end group written: not given here."}
{"substance": "ATSKPSLKC-OH [H-TL1]", "values": [{"measurement": "cytotoxicity toward mammalian cells", "setting": "mammalian cells", "result": "little cytotoxicity toward mammalian cells"}, {"measurement": "inhibition of TNF-α-induced L929 cell death", "setting": "L929 cells [1]", "result": "inhibited TNF-α-induced L929 cell death in a concentration-dependent manner; also recorded: improved survival in TNF-α-treated L929 cells"}, {"measurement": "TNF-α-induced expression of ICAM-1", "setting": "[2]", "result": "suppresses TNF-α-induced expression of IL-8, TNF-α, ICAM-1, and VCAM-1 in a concentration-dependent manner"}, {"measurement": "TNF-α-induced expression of IL-8", "setting": "[2]", "result": "suppresses TNF-α-induced expression of IL-8, TNF-α, ICAM-1, and VCAM-1 in a concentration-dependent manner"}, {"measurement": "TNF-α-induced expression of TNF-α", "setting": "[2]", "result": "suppresses TNF-α-induced expression of IL-8, TNF-α, ICAM-1, and VCAM-1 in a concentration-dependent manner"}, {"measurement": "TNF-α-induced expression of VCAM-1", "setting": "[2]", "result": "suppresses TNF-α-induced expression of IL-8, TNF-α, ICAM-1, and VCAM-1 in a concentration-dependent manner"}, {"measurement": "survival rate", "setting": "[3]; H-TL1 40 μg/kg at 1, 3, and 5 h after LPS 15 mg/kg i.p., * p < 0.05", "result": 37.5, "unit": "%"}, {"measurement": "survival rate", "setting": "[3]; H-TL1 80 μg/kg at 1, 3, and 5 h after LPS 15 mg/kg i.p., *** p < 0.001", "result": 62.5, "unit": "%"}, {"measurement": "protection from LPS-induced acute shock, dose dependence", "setting": "[3]; H-TL1 20, 40, and 80 μg/kg, LPS 15 mg/kg i.p.", "result": "protected the mice from LPS-induced acute shock in a dose-dependent manner"}, {"measurement": "recovery / general health", "setting": "[4]; DSS + H-TL1 1 mg/kg, n = 8", "result": "recovered, appearing similar in health to that of the normal group"}, {"measurement": "reduction in colon length", "setting": "[4]; H-TL1 0.5 mg/kg, n = 8, * p < 0.05 vs. DSS group", "result": "significantly attenuated the reduction in colon length"}, {"measurement": "disease activity index (DAI)", "setting": "[4]; H-TL1 1 mg/kg i.p. once daily, Days 6–8, 2.5% DSS, n = 8, * p < 0.05, ** p < 0.01 vs. DSS group", "result": "significantly decreased"}, {"measurement": "loss of body weight", "setting": "[4]; H-TL1 1 mg/kg i.p. once daily, by Day 8, DSS + vehicle lost an average of 4.3 g more than normal group, n = 8", "result": 1.6, "unit": "g"}, {"measurement": "symptoms associated with DSS-induced colitis", "setting": "[4]; H-TL1 1 mg/kg i.p. once daily, vs. vehicle-treated mice", "result": "significantly improved"}, {"measurement": "spleen/body weight ratio", "setting": "[4]; H-TL1 1 mg/kg, n = 8, * p < 0.05 vs. DSS alone", "result": "significantly lower"}, {"measurement": "reduction in colon length", "setting": "[4]; H-TL1 1 mg/kg, n = 8, *** p < 0.001 vs. DSS group", "result": "significantly attenuated the reduction in colon length"}, {"measurement": "TNF-α expression in lung tissue", "setting": "[5]", "result": "attenuated this effect"}, {"measurement": "cytotoxicity against L929 cells", "setting": "L929 cells [6]", "result": "not cytotoxic"}]}
